Molecular target: T1, human PTP1B (Homo sapiens, UniProt P18031)
T1 construct: but without the carboxy-terminal hydrophobic region (corresponding to 1-299 aa); made in house; host or cells: Sf9 insect cells (Spodoptera frugiperda), Bac-to-Bac baculovirus system
T1 sequence (P18031 1-299): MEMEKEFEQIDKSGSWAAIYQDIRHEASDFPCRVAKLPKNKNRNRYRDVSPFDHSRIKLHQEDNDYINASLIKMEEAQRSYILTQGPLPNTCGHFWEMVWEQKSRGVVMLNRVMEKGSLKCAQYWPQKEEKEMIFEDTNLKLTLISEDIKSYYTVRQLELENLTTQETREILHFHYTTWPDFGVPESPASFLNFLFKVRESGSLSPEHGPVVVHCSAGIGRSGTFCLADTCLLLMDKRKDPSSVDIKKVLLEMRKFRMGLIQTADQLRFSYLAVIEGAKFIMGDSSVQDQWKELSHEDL
Assay: PTP Assay PTP1B DiFMUP (enzymatic test for inhibition of a phosphatase)
Assay type: biochemical
Conditions: recombinant hPTP1B (aa 1-299, expressed in Sf9 cells); substrate DiFMUP per table head; read-out: IC-50 (μM) PTP Assay PTP1B DiFMUP

IC50: 0.7 µM
Structure (SMILES): O=C(O)c1cc(-c2csc(Nc3ccc(-c4ccccc4)cc3)n2)ccc1O [Example 17]

— US7741491B2, “Diphenylamine-substituted salicylthiazole derivatives and related compounds as phosphotyrosine phosphatase 1B (PTB1B) inhibitors for using as blood-sugar decreasing active ingredients for treating diabetes” (Sanofi-Aventis Deutschland GmbH, priority 2004, dated 2010)
